Assay [1] has as its target T1, Tubulin (Homo sapiens) (UniProt P68371+Q9H4B7+P0DPH7+P68366+Q13509+Q71U36+P04350+Q3ZCM7+P07437+P68363+Q9BQE3+Q6PEY2+Q13885+Q9BVA1+Q9BUF5). The experiment in a line: Inhibition of tubulin polymerization in human HeLa cells assessed as dynamic tyrosinated microtubules content at 14 uM by incubated for 2 hrs by immunofluorescence staining based assay. The class given is cell-based.

For the next assay, the target named is Tubulin. Description: Inhibition of tubulin polymerization in human HeLa cells assessed as dynamic tyrosinated microtubules content by incubated for 2 hrs by immunofluorescence staining based assay. Type of assay: cell-based.
For another assay, the system named is MIA PaCa-2. Description: Antiproliferative activity against human MIA PaCa-2 cells assessed as reduction in cell viability incubated for 72 hrs by MTT assay. The class given is functional, cell-based. The conditions noted are these: MIA PaCa-2, 72 h. On the technique in general: Tetrazolium dyes change colour on reduction, which living cells bring about.
A further assay concerns MES-SA/Dx5. The experiment in a line: Antiproliferative activity against multidrug-resistant human MES-SA/Dx5 cells assessed as reduction in cell viability incubated for 72 hrs by prestoblue dye based assay. The class given is functional. The conditions noted are these: MES-SA/Dx5, 72 h.
Another assay relates to A2780. The experiment in a line: Antiproliferative activity against human A2780 cells assessed as reduction in cell viability incubated for 72 hrs by MTT assay. Type of assay: functional, cell-based. To be noted: A2780, 72 h.
In assay [2] the test system is RL. Description: Antiproliferative activity against human RL cells assessed as reduction in cell viability incubated for 72 hrs by MTT assay. The class given is functional, cell-based.
Assay [3] has as its system RL. The experiment in a line: Induction of cell cycle arrest in human RL cells assessed as increase in accumulation in subG0/G1 phase at 10 nM incubated for 24 hrs by PI staining based flow cytometry analysis (reference value: 4.5 %). Type of assay: functional. For orientation: In flow cytometry, cells or beads pass a laser one at a time.
Assay [4] relates to RL. The experiment in a line: Induction of cell death in human RL cells assessed as cell gating level at 1 to 10 nM measured upto 48 hrs by PI staining based flow cytometry analysis (reference value: 80 to 85 %). The class given is functional. To be noted: dose 1-10 nM, time hrs <=48.
The subject of assay [5] is RL. Description: Induction of cell cycle arrest in human RL cells assessed as effect on cell cycle distribution at 1 nM incubated for 48 hrs by PI staining based flow cytometry analysis (reference value: 8 %). Type of assay: functional.
For assay [6], the system named is RL. Description: Induction of cell cycle arrest in human RL cells assessed as increase in accumulation in subG0/G1 phase at 10 nM incubated for 48 hrs by PI staining based flow cytometry analysis (reference value: 8 %). Type of assay: functional.
For assay [7], the system named is RL. Description: Induction of cell cycle arrest in human RL cells assessed as increase in accumulation in G2/M phase at 10 nM incubated for 24 hrs by PI staining based flow cytometry analysis (reference value: 23.3 %). Type of assay: functional.
The subject of assay [8] is RL. Description: Induction of cell cycle arrest in human RL cells assessed as increase in accumulation in subG0/G1 phase at 1 nM incubated for 48 hrs by PI staining based flow cytometry analysis (reference value: 8 %). Type of assay: functional.
For assay [9], the target named is T1, Tubulin (Homo sapiens). The experiment in a line: Inhibition of tubulin polymerization in human HeLa cells assessed as dynamic tyrosinated microtubules content at 2 uM by incubated for 2 hrs by immunofluorescence staining based assay. The class given is cell-based.
Assay [10] addresses T1, Tubulin (Homo sapiens). Description: Inhibition of tubulin polymerization in human HeLa cells assessed as dynamic tyrosinated microtubules content at 1 uM by incubated for 2 hrs by immunofluorescence staining based assay. Type of assay: cell-based.

The values below come from ChEMBL document CHEMBL4732231, “Combretastatin A-4 sulfur-containing heterocyclic derivatives: Synthesis, antiproliferative activities and molecular docking studies” (Eur J Med Chem, 2021).

The inhibition is the change of the read-out against control, counted positive when it falls. The EC50 is the midpoint of the concentration-response curve. What is called IC50 is the concentration that gives 50% inhibition.

Activity calls are given as the source filed them. The rule behind the calls is not given here.

For the compound `COc1cc(C(=O)C(=O)c2cc3ccccc3s2)cc(OC)c1OC`, at Tubulin (Homo sapiens) [1], the inhibition came out at 35%.

On to `COc1cc(/C=C\c2cc3cc(O)ccc3s2)cc(OC)c1OC`, for which the EC50 on Tubulin was determined as 717 nM.

As for `COc1cc(/C=C\c2cc3ccccc3s2)cc(OC)c1OC`, the concentration for half-maximal inhibition (IC50) was determined as 7.8 nM with MIA PaCa-2, 19 nM in the assay with MES-SA/Dx5, 7.9 nM in the assay on A2780 and 7.6 nM in the assay with RL [2].

Regarding `COc1csc(/C=C\c2cc(OC)c(OC)c(OC)c2)c1`, the concentration for half-maximal inhibition (IC50) in the assay on MIA PaCa-2 was 14 nM; in the assay with MES-SA/Dx5, 27 nM; in the assay on A2780 it was 13 nM; with RL [2] it was 11 nM. In addition, the Activity in the assay with RL [3] is 15.6%; with RL [4], 45%; in the assay on RL [6] it was 23.4%; with RL [7] it was 48.8%. The result with RL [5] was inactive.

As to `COc1ccc(/C=C\c2cc(OC)c(OC)c(OC)c2)s1`, in the assay on MES-SA/Dx5, the IC50 was found to be 75 nM.

With `COc1cc2c(c(OC)c1OC)-c1ccc(OC)c(=O)cc1[C@@H](NC(C)=O)CC2` [COLCHICINE], the IC50 came out at 6.1 nM in the assay with MIA PaCa-2, 757 nM in the assay on MES-SA/Dx5, 14 nM in the assay on A2780 and 4.4 nM with RL [2].

For the compound `COc1cc(/C=C\c2sc3ccccc3c2C)cc(OC)c1OC`, the values for the IC50 with MIA PaCa-2, with A2780 and in the assay with RL [2] were 120 nM, 360 nM and 61 nM, respectively. The EC50 at Tubulin stood at 555 nM.

For the compound `COc1cc(/C=C\c2csc3ccccc23)cc(OC)c1OC`, in the assay on MES-SA/Dx5, the half-inhibitory concentration (IC50) was 288 nM.

For the compound `COc1ccc(/C=C\c2cc(OC)c(OC)c(OC)c2)cc1O` [COMBRETASTATIN A4], the Activity came out at 30.1% with RL [8], 19.3% in the assay on RL [3], 45% in the assay on RL [4] and 34.9% with RL [6]. For the same compound, the half-inhibitory concentration (IC50) with MIA PaCa-2 amounted to 2.1 nM; with MES-SA/Dx5, 3 nM; in the assay on A2780, 2.5 nM; in the assay on RL [2] it was 1.4 nM.

Turning to `C=C(c1cc(OC)c(OC)c(OC)c1)c1cc2ccccc2s1`, the IC50 with MES-SA/Dx5 stood at 150 nM.

Take `COc1cc(/C=C\c2cc3cc(F)ccc3s2)cc(OC)c1OC`: the IC50 worked out at 200 nM in the assay on MIA PaCa-2, 200 nM in the assay on A2780 and 38 nM with RL [2]. The EC50 at Tubulin came out at 523 nM.

On to `COc1ccsc1/C=C\c1cc(OC)c(OC)c(OC)c1`, for which the half-maximal inhibitory concentration (IC50) with MIA PaCa-2, in the assay with A2780 and in the assay on RL [2] was more than 1000 nM each time. Besides, on Tubulin, the EC50 was more than 10000 nM.

On to `COc1ccc2sc(/C=C\c3cc(OC)c(OC)c(OC)c3)cc2c1`, for which the inhibition at Tubulin (Homo sapiens) [9] turned out to be 62%; at Tubulin (Homo sapiens) [10] it was 14%.
